For assay [1], the system named is Aspergillus niger-ATCC 9642, Penicillium funiculosum-ATCC 11797, Chaetomium globosum-ATCC 6205, Trichoderma virens-ATCC 9645, Aureobasidium pullulans-ATCC …. The experiment in a line: ASTM G21 strengthened (fungal growth on specimen, 28 days). Format: cell-based, mold fungi (composite spore suspension). The following applies: for ASTM G21: 0.5 pbw (B) with 0.25 pbw (C) C8-C18-alkyldimethylbenzyl ammonium chloride; for ASTM G21 strengthened rating: rigid foam A4.

The subject of assay [2] is Escherichia coli ATCC 8739. The experiment in a line: JIS Z 2801 test method (PUD coatings, 24 hours). Format: cell-based. Particulars: polyurethane coating A5.
Assay [3] has as its system Penicillium funiculosum-ATCC 36839. In words: Agar diffusion test SAN BIO 12/94. Particulars: polyurethane coating A5. Format: cell-based. For orientation: Agar diffusion results depend on both activity and mobility in agar.
The test system of assay [4] is Aspergillus niger-ATCC 6275, Penicillium funiculosum-ATCC 36839, Chaetomium globosum-ATCC 6205, Trichoderma virens ATCC 9645, Paecilomyces varioti-ATCC 18502. In words: EN ISO 846 A test method (PUD coatings, 28 days). Type of assay: cell-based, fungi (composite spore suspension). Set-up: key: 0: No fungal growth, excellent resistance; 1: fungi visible with the microscope, sufficient resistance; 2-5: fungi visible to the naked eye, insufficient resistance. The following applies: polyurethane coating A5.

Assay [5] deals with Escherichia coli ATCC 11229. The experiment in a line: JIS L 1902 test method (memory foam, 18 hours). Format: cell-based. Particulars: memory foam A2.
The mark [6] stands for this setting: memory foam A1, 0.2 pbw (B) with 0.5 pbw (C) dimethyltetradecyl(3-(trimethoxysilyl)propyl)ammonium chloride, (E) Diglyme 0.8 pbw.
[7] abbreviates: memory foam A2, 0.5 pbw (B), 0 pbw (C).
[8] abbreviates: memory foam A2, 0.125 pbw (C), 0 pbw (B).
Setting [9] is: memory foam A2, 0.25 pbw (C), 0 pbw (B).
Where [10] appears, read: 0.5 pbw (C) with 0.25 pbw (B) tetrasodium EDTA salt.
[11] abbreviates: 0.5 pbw (C) with 0.5 pbw (B) tetrasodium EDTA salt.
[12] abbreviates: memory foam A2, 0.5 pbw (C), 0 pbw (B).
Where [13] appears, read: memory foam A2, 1 pbw (C), 0 pbw (B).
[14] abbreviates: memory foam A2, 2 pbw (C), 0 pbw (B).

Where “and” joins values, the source holds several entries; their conditions need not be identical. Equal values may be shown once. Read-outs that look alike come from different tables or passages of the source. Where only a bound is given, the exact number is not on record here.

With `O=C(O)CC(O)(CC(=O)O)C(=O)O` [Citric acid], the “G21 (ASTM G21 strengthened rating)” value in assay [1] (setting [6]) is 4 (at least 60% of the surface is covered with mold fungi).

Consider `O=C(O)CN(CCO)CCN(CC(=O)O)CC(=O)O` [N-(2-Hydroxyethyl)-ethylenediamine-N,N′,N′-triacetic acid], for which the “ASTM G21” value in assay [1] (memory foam A2) is 2 (10 to 30% of the surface is covered with mold fungi). Moreover, the “G21 (ASTM G21 strengthened rating)” value in assay [1] (setting [7]) is reported as 3 (30 to 60% of the surface is covered with mold fungi).

`O=C(O)CN(CC(=O)O)CC(=O)O` [Nitrilotriacetic acid]: the “G21 (ASTM G21 strengthened rating)” value in assay [1] (setting [6]) is reported as 4 (at least 60% of the surface is covered with mold fungi).

Take `CCCCCCCCCCC(=O)O` [Undecanoic acid]: the “G21 (ASTM G21 strengthened rating)” value in assay [1] (memory foam A1, 0.5 pbw (B) with 0.5 pbw (C) dimethyltetradecyl(3-(trimethoxysilyl)propyl)ammonium chloride, (E) Arcol Polyol 1108 0.5 pbw) is listed as 4 (at least 60% of the surface is covered with mold fungi).

On to `CCCCCCCCCC[N+](C)(C)CCCCCCCCCC.[Cl-]` [didecyldimethyl ammonium chloride], for which, in assay [1], the “G21 (ASTM G21 strengthened rating)” value is 0.

Take `CCCCCCCCCCCCCCCCCC[N+](C)(C)CCC[Si](OC)(OC)OC.[Cl-]` [dimethyloctadecyl(3-(trimethoxysilyl)propyl)ammonium chloride]: the results for the “G21 (ASTM G21 strengthened rating)” value in assay [1] (setting [8]) and in assay [1] (setting [9]) were 4 (at least 60% of the surface is covered with mold fungi) and 3 (30 to 60% of the surface is covered with mold fungi), respectively.

Consider `CCCCCCCCCCCCCC[N+](C)(C)CCC[Si](OC)(OC)OC.[Cl-]` [dimethyltetradecyl(3-(trimethoxysilyl)propyl)ammonium chloride], for which the “Bacterial Activity R, logarithmic reduction (log R activity), JIS Z 2801” value in assay [2] (0.125 pbw (C) with 0.25 pbw (B) tetrasodium EDTA salt) is recorded as 2.80 log R; in assay [2] (0.125 pbw (C) with 0.5 pbw (B) tetrasodium EDTA salt), above 5.10 log R; in assay [2] (0.125 pbw (C), 0 pbw (B)) it was 0.10 log R; in assay [2] (setting [10]), 2.90 log R; in assay [2] (setting [11]), above 5.10 log R; in assay [2] (0.5 pbw (C), 0 pbw (B)), 0.50 log R. Moreover, the “SAN BIO 12-94 fungal growth” value in assay [3] (0.5 pbw (C), 0 pbw (B)) is “Full (f) (insufficient protection, sample is covered with fungi)”. The “EN ISO 846 A rating” value in assay [4] (setting [10]) amounted to 3; in assay [4] (setting [11]), 1; in assay [4] (0.5 pbw (C) with 1 pbw (B) tetrasodium EDTA salt) it was 0; in assay [4] (0.5 pbw (C), 0 pbw (B)), 5. In assay [5] (1 pbw (C), 0 pbw (B)), the “logarithmic reduction of bacterial growth (log R), JIS L 1902” value came out at 2.7 log R. Further, the “bacterial growth (in words)” value in assay [5] (combination of (C) with (B) disodium EDTA dihydrate) is recorded as “absence of bacterial growth”. Moreover, the “G21 (ASTM G21 strengthened rating)” value in assay [1] (memory foam A1, 0.5 pbw (C), no (B), (E) Arcol Polyol 1108 1 pbw) is listed as 4 (at least 60% of the surface is covered with mold fungi); in assay [1] (memory foam A1, 0.5 pbw (C), no (B), (E) Diglyme 1 pbw), 4 (at least 60% of the surface is covered with mold fungi); in assay [1] (memory foam A1, 0.5 pbw (C), no (B), (E) Triacetin 1 pbw), 4 (at least 60% of the surface is covered with mold fungi); in assay [1] (memory foam A1, 0.5 pbw (C), no (B), no (E)), 3 (30 to 60% of the surface is covered with mold fungi); in assay [1] (setting [8]) it was 4 (at least 60% of the surface is covered with mold fungi); in assay [1] (setting [9]), 3 (30 to 60% of the surface is covered with mold fungi). Also, the “G21 (ASTM G21 strengthened rating)” value in assay [1] (setting [12]) stood at 0.

In the case of `O.O.O=C([O-])CN(CCN(CC(=O)O)CC(=O)O)CC(=O)[O-].[Na+].[Na+]` [disodium EDTA dihydrate, Disodium EDTA dihydrate], the “SAN BIO 12-94 fungal growth” value was “Full (f) (insufficient protection, sample is covered with fungi)” in assay [3] (0.25 pbw (B), 0 pbw (C)); “Full (f) (insufficient protection, sample is covered with fungi)” in assay [3] (0.5 pbw (B), 0 pbw (C)); “Full (f) (insufficient protection, sample is covered with fungi)” in assay [3] (1 pbw (B), 0 pbw (C)). For the same compound, in assay [5] (0.25 pbw (B), 0 pbw (C)), the “logarithmic reduction of bacterial growth (log R), JIS L 1902” value turned out to be 3.1 log R. Also, the “G21 (ASTM G21 strengthened rating)” value in assay [1] (setting [6]) is on record as 0; in assay [1] (memory foam A2, 0.25 pbw (B), 0 pbw (C)), 3 (30 to 60% of the surface is covered with mold fungi); in assay [1] (setting [7]), 3 (30 to 60% of the surface is covered with mold fungi); in assay [1] (memory foam A2, 1 pbw (B), 0 pbw (C)), 3 (30 to 60% of the surface is covered with mold fungi). In addition, the “antimicrobial efficiency / protection (in words)” value in assay [1] (memory foam A1, (B) combined with (C) dimethyltetradecyl(3-(trimethoxysilyl)propyl)ammonium chloride, ASTM G21 strengthened) was “very good antimicrobial efficiency”. In addition, the “ASTM G21” value in assay [1] (memory foam A2) was found to be 0. Moreover, the “ASTM G21 strengthened rating” value in assay [1] (0.5 pbw (B), 0 pbw (C)) was 4 (at least 60% of the surface is covered with mold fungi).

Consider `CCCCCCCCCCCCN(CCCN)CCCN` [laurylamine dipropylenediamine], for which the “G21 (ASTM G21 strengthened rating)” value in assay [1] (setting [12]) and in assay [1] (setting [13]) was 4 (at least 60% of the surface is covered with mold fungi) throughout.

As to `CCCCCCCCCCCCCC[N+](C)(C)C.[Cl-]` [myristyltrimethylammonium chloride], the results for the “G21 (ASTM G21 strengthened rating)” value in assay [1] (setting [12]), in assay [1] (setting [13]) and in assay [1] (setting [14]) were 2 (10 to 30% of the surface is covered with mold fungi), 0 and 0, respectively.

For the compound `O=C([O-])CN(CCN(CC(=O)[O-])CC(=O)[O-])CC(=O)[O-].[Na+].[Na+].[Na+].[Na+]` [tetrasodium EDTA salt, EDTA, tetrasodium], the “Bacterial Activity R, logarithmic reduction (log R activity), JIS Z 2801” value is recorded as 0.90 log R in assay [2] (0.25 pbw (B), 0 pbw (C)) and 3.20 log R in assay [2] (0.5 pbw (B), 0 pbw (C)). Moreover, the “EN ISO 846 A rating” value was 5 in assay [4] (0.25 pbw (B), 0 pbw (C)); 5 in assay [4] (0.5 pbw (B), 0 pbw (C)); 5 in assay [4] (1 pbw (B), 0 pbw (C)). The “G21 (ASTM G21 strengthened rating)” value in assay [1] is listed as 0. For the same compound, in assay [1], the “antimicrobial efficiency / protection (in words)” value is “very good antimicrobial efficiency”.

In the case of “C8-C18-alkyldimethylbenzyl ammonium chloride”, the “G21 (ASTM G21 strengthened rating)” value in assay [1] (setting [9]) was 3 (30 to 60% of the surface is covered with mold fungi) and 2 (10 to 30% of the surface is covered with mold fungi); in assay [1] (setting [12]), 4 (at least 60% of the surface is covered with mold fungi); in assay [1] (setting [13]), 4 (at least 60% of the surface is covered with mold fungi); in assay [1] (setting [14]) it was 0. The “ASTM G21 strengthened rating” value in assay [1] (0.25 pbw (C), 0 pbw (B)) is recorded as 3 (30 to 60% of the surface is covered with mold fungi).

These data come from patent US20230128969A1, “POLYURETHANE FOAM COMPOSITIONS WITH ANTIMICROBIAL PROPERTIES” (SANITIZED AG, priority 2020, published 2023).
